Measurements published in publication PMC6943423, “Structure-Activity Study of an All-D Antimicrobial Octapeptide D2D” (Molecules, 2019).
Square brackets hold non-standard residues; d marks the D form. Peptide text beside a SMILES is read from it. d1Nal = N[C@H](Cc1cccc2ccccc12)C(=O)O; dNle = CCCC[C@@H](N)C(=O)O

Tests used:
human red blood cells = assay: Hemolytic activity; type: cell-based; settings: red cells of human, 1 h, 150
Method: The percentage of hemolysis at 150 μM was determined for all compounds as previously described. Briefly, two-fold serial dilutions (2.35 to 150 μM) of compounds in PBS were mixed with a 0.5% v/v suspension of fresh human red blood cells (RBC) in the same buffer. After 1 h incubation at 37 °C, plates were centrifuged and aliquots of the supernatants were transferred to clear ELISA plates. Absorbance at 414 nm was determined and normalised with respect to a negative (PBS, 0%) and positive (melittin, 100%) control.

[1] = Peptide self-assembly nanostructure in solution by SAXS; type: physicochemical; settings: for nanostructure in solution (self-assembly, SAXS model): lab SAXS, 50 mM Tris buffer pH 7.4, 2.5–10 mg/mL, ambient temperature; as to cross section of the nanotubes: values in Å
Method: SAXS experiments of D2D and the alanine-scan (compounds 1–8) were performed using a Bruker NANOSTAR equipped with a microfocus X-ray source (IμS Cu, InCoatec, Germany) and a VÅNTEC-2000 detector. Raw scattering data was calibrated to absolute intensity scale using water as a primary standard and radially averaged in order to obtain the 1D scattered intensity profile as a function of the scattering vector q (q = 4 π sin (θ/2)/λ), where θ is the scattering angle and λ is the X-ray wavelength of 1.54 Å. The samples were dissolved in 50 mM Tris buffer, pH 7.4 (10 mg/mL, 5 mg/mL and 2.5 mg/mL) and injected manually into a temperature-controlled quartz cell located in a vacuum chamber and measured for 180 min.
The scattering of the peptide D2D was analysed using a random polymer-like chain model:(1) Ichain(q)=ϕ·Vp·Δρ^2·Pchain(q) where ϕ is the volume fraction of the peptide, Vp is the volume of the polymer, Δρ is the excess scattering length density and Pchain(q) is the form factor of the free peptide chains given by the Debye expression for Gaussian chains:(2) gPchain(q)=2·exp[−(qRg)^2]−1+(qRg)^2/(qRg)^4 where Rg is the radius gyration of the peptide chains.
The scattering for compounds 2 and 7 was analysed using a rectangular sheet like model:(3) Isheet(q)=ϕ·Vp·Δρ^2·Np·Psheet(q)
Under the assumption that the length of the peptide sheets are much greater than the lateral dimension, i.e., c >> a, b, the form factor Psheet(q) is given by (4) Psheet(q)=Fc(q)1/2π∫02πAsheet(q, α)^2dα where the amplitude is given by (5) Asheet(q,α)=sin(qb cos(α)/2)/qb cos(α)/2· sin(qa sin(α)/2) /qa sin(α)/2) and (6) Fc(q)=(2 Si(qc)/(qc)−4 sin^2(qc/2)/(qc)^2 where Si(x)=∫0xt^−1sint dt .
The expression for the absolute scattering intensity, from this structure can be written as:(7) Inanotube(q)=ϕ·P·Vtot·Δρ^2·P(q)L·A(q)cs2·DW(q) where ϕ is the volume fraction of the peptide, P is the aggregation number given by P π(Ro2−Ri2)L/Vp where Vp is the volume of a peptide chain, Ro is the outer radius and Ri is the inner radius of the tubes, and L is the length. A(q)cs2 is given by:(8) A(q)cs2=Ro2A(q,Rc)−Rin2A(q,Ri)/(Ro2−Ri2) where A(q,x)=2J1(q·x)/(q·x) and J1(x) is the first order Bessel function.
The longitudinal form factor P(q)L is given by:(9) P(q)L=2 Si(QL)/QL −4 sin(sin^2(QL/2)/(QL)^2 where L is the length of the nanotubes and Si(x) is the Sine-function.
In addition, we introduced a slight distribution in the inner radius for possible shape fluctuations, and a Debye Waller factor, DW(q) = exp(−q^2 σ^2), describing possible surface roughness of the inner and outer wall.

| nanostructure in solution (self-assembly, SAXS model) [1] | cross section of the nanotubes ([1]; SAXS nanotube model fit, 50 mM Tris pH 7.4) [Å] | SMILES | %H (% Hemolysis at 150 µM) (human red blood cells) [%] |
| --- | --- | --- | --- |
| random polymer-like chains | – | CCCC[C@@H](NC(=O)[C@@H](CCCCN)NC(=O)[C@@H](Cc1cccc2ccccc12)NC(=O)[C@@H](CCCCN)NC(=O)[C@@H](Cc1ccccc1)NC(=O)[C@@H](Cc1cccc2ccccc12)NC(=O)[C@@H](CCCCN)NC(=O)[C@@H](C)N)C(N)=O [Compound 1, ak(1-nal)fk(1-nal)k(nle)-NH2] (H-[dA][dK][d1Nal][dF][dK][d1Nal][dK][dNle]-NH2) | 41 |
| larger filament like structures | 14 | CCCC[C@@H](NC(=O)[C@@H](CCCCN)NC(=O)[C@@H](Cc1cccc2ccccc12)NC(=O)[C@@H](CCCCN)NC(=O)[C@@H](Cc1ccccc1)NC(=O)[C@@H](Cc1cccc2ccccc12)NC(=O)[C@@H](C)NC(=O)[C@H](N)CCCCN)C(N)=O [Compound 2, ka(1-nal)fk(1-nal)k(nle)-NH2] (H-[dK][dA][d1Nal][dF][dK][d1Nal][dK][dNle]-NH2) | 59 |
| random polymer-like chains | – | CCCC[C@@H](NC(=O)[C@@H](CCCCN)NC(=O)[C@@H](Cc1cccc2ccccc12)NC(=O)[C@@H](CCCCN)NC(=O)[C@@H](Cc1ccccc1)NC(=O)[C@@H](C)NC(=O)[C@@H](CCCCN)NC(=O)[C@H](N)CCCCN)C(N)=O [Compound 3, kkafk(1-nal)k(nle)-NH2] (HELM PEPTIDE1{[dK].[dK].[dA].[dF].[dK].[O=C([C@@H](Cc1cccc2ccccc12)N[*:1])[*:2]].[dK].[CCCC[C@@H](N[*:1])C(=O)[*:2]].[am]}$$$$V2.0) | 2 |
| random polymer-like chains | – | CCCC[C@@H](NC(=O)[C@@H](CCCCN)NC(=O)[C@@H](Cc1cccc2ccccc12)NC(=O)[C@@H](CCCCN)NC(=O)[C@@H](C)NC(=O)[C@@H](Cc1cccc2ccccc12)NC(=O)[C@@H](CCCCN)NC(=O)[C@H](N)CCCCN)C(N)=O [Compound 4, kk(1-nal)ak(1-nal)k(nle)-NH2] (H-[dK][dK][d1Nal][dA][dK][d1Nal][dK][dNle]-NH2; N-terminus assumed) | 22 |
| random polymer-like chains | – | CCCC[C@@H](NC(=O)[C@@H](CCCCN)NC(=O)[C@@H](C)NC(=O)[C@@H](CCCCN)NC(=O)[C@@H](Cc1ccccc1)NC(=O)[C@@H](Cc1cccc2ccccc12)NC(=O)[C@@H](CCCCN)NC(=O)[C@H](N)CCCCN)C(N)=O [Compound 6, kk(1-nal)fkak(nle)-NH2] (HELM PEPTIDE1{[dK].[dK].[O=C([C@@H](Cc1cccc2ccccc12)N[*:1])[*:2]].[dF].[dK].[dA].[dK].[CCCC[C@@H](N[*:1])C(=O)[*:2]].[am]}$$$$V2.0; N-terminus assumed) | 10 |
| larger filament like structures | – | CCCC[C@@H](NC(=O)[C@@H](C)NC(=O)[C@@H](Cc1cccc2ccccc12)NC(=O)[C@@H](CCCCN)NC(=O)[C@@H](Cc1ccccc1)NC(=O)[C@@H](Cc1cccc2ccccc12)NC(=O)[C@@H](CCCCN)NC(=O)[C@H](N)CCCCN)C(N)=O [Compound 7, kk(1-nal)fk(1-nal)a(nle)-NH2] (H-[dK][dK][d1Nal][dF][dK][d1Nal][dA][dNle]-NH2) | 67 |
| random polymer-like chains | – | C[C@@H](NC(=O)[C@@H](CCCCN)NC(=O)[C@@H](Cc1cccc2ccccc12)NC(=O)[C@@H](CCCCN)NC(=O)[C@@H](Cc1ccccc1)NC(=O)[C@@H](Cc1cccc2ccccc12)NC(=O)[C@@H](CCCCN)NC(=O)[C@H](N)CCCCN)C(N)=O [Compound 8, kk(1-nal)fk(1-nal)ka-NH2] (HELM PEPTIDE1{[dK].[dK].[O=C([C@@H](Cc1cccc2ccccc12)N[*:1])[*:2]].[dF].[dK].[O=C([C@@H](Cc1cccc2ccccc12)N[*:1])[*:2]].[dK].[dA].[am]}$$$$V2.0; N-terminus assumed) | 5 |
| – | – | NCCCC[C@@H](N)C(=O)N[C@H](CCCCN)C(=O)N[C@H](Cc1cccc2ccccc12)C(=O)N[C@H](Cc1ccccc1)C(=O)N[C@H](CCCCN)C(N)=O [Compound 32, kk(1-nal)fk-NH2] (HELM PEPTIDE1{[dK].[dK].[O=C([C@@H](Cc1cccc2ccccc12)N[*:1])[*:2]].[dF].[dK].[am]}$$$$V2.0; N-terminus assumed) | 5 |
| – | – | CCCC[C@@H](NC(=O)[C@@H](CCCCN)NC(=O)[C@@H](Cc1cccc2ccccc12)NC(=O)[C@@H](CCCCN)NC(=O)[C@@H](Cc1ccccc1)NC(=O)[C@@H](Cc1cccc2ccccc12)NC(=O)[C@@H](CCCCN)NC(=O)[C@H](N)CCCNC(=N)N)C(N)=O [Compound 33, rk(1-nal)fk(1-nal)k(nle)-NH2] (H-[dR][dK][d1Nal][dF][dK][d1Nal][dK][dNle]-NH2) | 60 |
| – | – | CCCC[C@@H](NC(=O)[C@@H](CCCCN)NC(=O)[C@@H](Cc1cccc2ccccc12)NC(=O)[C@@H](CCCCN)NC(=O)[C@@H](Cc1ccccc1)NC(=O)[C@@H](Cc1cccc2ccccc12)NC(=O)[C@@H](CCCNC(=N)N)NC(=O)[C@H](N)CCCCN)C(N)=O [Compound 34, kr(1-nal)fk(1-nal)k(nle)-NH2] (H-[dK][dR][d1Nal][dF][dK][d1Nal][dK][dNle]-NH2; N-terminus assumed) | 35 |
| – | – | CCCC[C@@H](NC(=O)[C@@H](CCCCN)NC(=O)[C@@H](Cc1cccc2ccccc12)NC(=O)[C@@H](CCCNC(=N)N)NC(=O)[C@@H](Cc1ccccc1)NC(=O)[C@@H](Cc1cccc2ccccc12)NC(=O)[C@@H](CCCCN)NC(=O)[C@H](N)CCCCN)C(N)=O [Compound 35, kk(1-nal)fr(1-nal)k(nle)-NH2] (H-[dK][dK][d1Nal][dF][dR][d1Nal][dK][dNle]-NH2; N-terminus assumed) | 49 |
| – | – | CCCC[C@@H](NC(=O)[C@@H](CCCNC(=N)N)NC(=O)[C@@H](Cc1cccc2ccccc12)NC(=O)[C@@H](CCCCN)NC(=O)[C@@H](Cc1ccccc1)NC(=O)[C@@H](Cc1cccc2ccccc12)NC(=O)[C@@H](CCCCN)NC(=O)[C@H](N)CCCCN)C(N)=O [Compound 36, kk(1-nal)fk(1-nal)r(nle)-NH2] (H-[dK][dK][d1Nal][dF][dK][d1Nal][dR][dNle]-NH2; N-terminus assumed) | 51 |
